Results on 86 molecules are retold here after a melting point compilation (Tetko et al.; mined from patent text by program, amines drawn as free bases though some values may be those of a salt).

Each structure is given as a SMILES string.

`Oc1ccc(Cn2c(S)nc3ccccc32)cc1` returned a melting point of 216 to 220 °C.

`CC(C)C[C@H](NC(=O)OCc1ccccc1)C(=O)N[C@@H](Cc1ccccc1)C(=O)CS(C)(=O)=O`: the melting point was in the range of 142 to 144 °C.

`Cc1ccc2nc(Cl)c(C#N)c(Cl)c2c1` showed a melting point of 159 °C. For `N=C(N)c1ccc(C(=O)N[C@@H](Cc2cc(I)c(O)c(I)c2)C(=O)N2CCC(OCC(=O)O)CC2)cc1`, the melting point was in the range of 220 to 221 °C. The same measure for `CCOC(=O)[C@H](Cc1ccc(-c2c(OC)cc(CO)cc2OC)cc1)NC(=O)OC(C)(C)C`: 142 to 143 °C; for `Cc1cn(-c2cc(NC(=O)c3ccc(C)c(Nc4nccc(-c5cccnc5)n4)c3)cc(C(F)(F)F)c2)cn1`: 235 to 236 °C; for `COc1ccc(CNc2cc(Cn3c(C(=O)c4cc(C)cc(C#N)c4)c(C(C)C)c(=O)[nH]c3=O)c(F)c(F)n2)cc1`: 133 to 134 °C. The same measure for `COc1ccc(-n2cc(C(=O)O)c(=O)c3cc(F)c(F)cc32)cc1`: 256 to 258 °C. On to `NNC(=O)c1nc(CS(=O)(=O)c2ccc(Cl)cc2)no1`, for which the melting point was 177 °C.

Molecule `O=S(=O)(Nc1cccc(Cl)c1)c1ccc(Nc2nc(OCC3CCCCC3)c3nc[nH]c3n2)cc1` had a melting point of 248 to 249 °C. The same measure for `Cc1[nH]c2ccccc2c1C(=O)C(=O)N1CCC(Oc2ccc(F)cc2)CC1`: 213 to 214 °C; for `COc1ccc([C@H](O)[C@@H](Cc2ccc(C(F)(F)F)cc2)NC(=O)CCc2ccccc2)cc1` (racemic): 116 to 117 °C. The same measure for `CC1(C)c2cc(C(=O)O)ccc2Oc2ncccc21`: 241 to 242 °C. The molecule `N#CC1CCn2c(cc3ccccc32)C1` (stereo unspecified) came in with a melting point of 116 to 118 °C. The same measure for `CCCn1c(=O)n(CC(C)O)c(=O)c2[nH]c(C34CC5CC(CC3C5)C4)nc21` (stereo unspecified): 195 to 197 °C; for `CCCCc1oc2ccccc2c1-c1ncc(-c2ccc3c(Br)c(OCC#N)ccc3c2)o1`: 144 to 146 °C; for `CN1C(=O)[C@H](NC(=O)/C=C/c2ccc(I)cc2)N=C(c2ccccc2)c2ccccc21`: 137 to 140 °C. Molecule `Cc1cccc(CC(=O)O)c1OCCCc1cn(-c2ccc(C(F)(F)F)cn2)nc1C(C)(C)C` yielded a melting point of 86 to 87 °C. The same measure for `CCCc1cn(C(CC)C(=O)N(C)C)nc1-c1ccccc1` (stereo unspecified): 63 to 65.5 °C. The same measure for `CCCc1nnc(C(Cc2ccc(-c3cccc(CN(C)C(=O)c4ccccc4)c3)cc2)Nc2ccccc2C(=O)c2ccccc2)o1` (stereo unspecified): 65 °C. Molecule `COC(=O)C(=O)c1ccc(OCc2ccc3ccccc3c2)cc1` displayed a melting point of 101 to 102 °C. The same measure for `COC(=O)CCC/C=C/c1nn(-c2ccc(NC(C)=O)cc2)c2c1CCC2`: 118 to 120 °C.

As to `Cc1ccc(COC(=O)C(=O)OCc2ccc(C)cc2)cc1`, the melting point worked out at 100 °C. The same measure for `COC(=O)CC(C(=O)OC)N1CCC(Nc2ncc3ncnc(Nc4cccc(Br)c4)c3n2)CC1` (stereo unspecified): 193 °C. The same measure for `OCCOc1cccc2ncccc12`: 109 to 111 °C; for `CC(C)Cc1ccc(-c2cc(C(=O)O)cc(-c3ccc(Cl)cc3)n2)cc1`: 220 to 221 °C; for `CC(c1ccccc1)N(C=O)C(C#N)C=O` (single isomer, unassigned; (+)): 245 °C. In the case of `CN1CCNC1=NC(=S)Nc1ccccc1`, the melting point lay in the range of 205 to 208 °C. Turning to `COc1cc2cc3c(Nc4ccc(Sc5nccn5C)c(Cl)c4)c(C#N)cnc3cc2cc1OCCN1CCOCC1`, the melting point is greater than 300 °C. The same measure for `CCOC(=O)C(OC)c1nn(-c2ccc(Cl)cc2)c2c1CCCC2` (stereo unspecified): 86 to 87 °C; for `COc1ccccc1-n1c(=O)[nH]c2c(C(N)=O)nc(-c3ccc4nc(C(F)(F)F)[nH]c4c3)nc21`: 220 to 222 °C. Molecule `CC1(C)C(C=C(Cl)Cl)C1(C)C(=O)O` (stereo unspecified) registered a melting point of 137 to 138 °C. The same measure for `COc1ccc(C(C)(C)C)cc1NC(=O)Nc1ccc(-c2cnc3c(c2)NC(=O)CS3(=O)=O)c2ccccc12`: 209 to 211 °C; for `Cc1cc(C)cc(OCC(O)CNc2nc(-c3ccccc3)nc3ccccc23)c1` (stereo unspecified): 170 to 172 °C. In turn, `COC(=O)CCc1cnoc1-c1ccc(Br)cc1` yielded a melting point of 58 to 59 °C. The same measure for `COc1ccc(S(=O)(=O)C2SC(=O)NC2=O)cc1` (stereo unspecified): 93 to 95 °C; for `CNS(=O)(=O)c1ccc2ccccc2c1`: 137 °C.

`O=C1Nc2c(Cl)cccc2C12COc1cc3c(cc12)CCO3` (stereo unspecified) gave a melting point greater than 250 °C. Molecule `Cc1ccc(S(=O)(=O)n2cc(CO)nc2C)cc1` had a melting point of 140 to 143 °C. The same measure for `C=CCS(=O)(=O)c1cccnc1S(N)(=O)=O`: 178 °C; for `COCc1cccc(-c2nn(C(C)c3oc4ccccc4c(=O)c3-c3cccc(F)c3)c3ncnc(N)c23)c1` (stereo unspecified): 167 to 170 °C. The same measure for `OC1(c2cccs2)C(c2ccccc2Cl)SC2=NCCCCN21` (stereo unspecified): 120 to 122 °C; for `Cc1cccc(-c2[nH]c(C(C)C)nc2-c2cccc(-c3ccc(NS(C)(=O)=O)cc3F)c2)n1`: 179 to 184 °C; for `COCOc1ccc(C=O)cc1OC`: 39 to 40 °C.

`CCn1ccc(=O)c2cnc(-c3ccncc3)nc21`: the melting point lay in the range of 200 to 202 °C. For `CC(C)(C)OC(=O)CCc1csc(CCNc2nc(N)c3ncn(C4OC(CO)C(O)C4O)c3n2)c1` (stereo unspecified), the melting point lay within 120 to 124 °C. The same measure for `CC1(C)CCC(C)(C)c2cc(C#Cc3ccc(-c4nnn[nH]4)cc3)ccc21`: 227 to 228 °C.

`Cc1cc(Cl)c([N+](=O)[O-])cc1NCCO` showed a melting point of 110 °C. The molecule `COc1ccc2c(=O)c(C=O)coc2c1OC(C)=O` gave a melting point of 160 to 161 °C. The same measure for `CCN(CC)CCNc1ccc(C2C(C(=O)OC)=C(C)NC(C)=C2C(=O)OC)cc1[N+](=O)[O-]`: 161 °C; for `CC(C)(C)OC(=O)N1CCCC(O)(C#Cc2cccc(Cl)c2)C1` (stereo unspecified): 128 to 129 °C; for `COc1ccc(-c2cnn3c(N)c(-c4cccc(Cl)c4)c(C)nc23)cc1OC`: 223 to 226 °C. The same measure for `O=C1c2ccccc2C(=O)c2c1cccc2N1CCNCC1`: 190 °C; for `CCCc1cc(Cl)c(OC(C(=O)O)c2ccccc2)c(C(C)=O)c1O` (stereo unspecified): 131 to 133 °C. `O=Cc1ccc(C(=O)Nc2ccc(C(F)(F)F)cc2)cc1` had a melting point of 173 °C. The same measure for `CCOC(=O)c1nn(-c2ccc(OC(F)(F)F)cc2)c2cccc(F)c2c1=O`: 178 °C; for `CN(CCC=C1c2ccccc2COc2ccccc21)CCCCCC(O)c1ccc(C(C)(C)C)cc1` (stereo unspecified): 73 to 75 °C. The same measure for `CCOP(=O)(OCC)C(CCc1cc(C)nc2c(Br)c(-c3ccccc3)nn12)P(=O)(OCC)OCC`: 46 to 48 °C; for `COC(=O)CCn1c(=O)n2n(c1=O)C(C(=O)OC(C)(C)C)C=CC2` (stereo unspecified): 77 to 78 °C; for `CS(=O)(=O)c1ccc(-n2nc(C(F)(F)F)cc2-c2ccc(C#CCCCO)cc2)cc1`: 87 to 90 °C. The same measure for `CCCCCS(=O)(=O)NC(=O)/C=C/c1cc(OCCOC)nn1Cc1ccc(C(F)(F)F)cc1Cl`: 130 to 132 °C; for `CC12CCC(=O)C=C1CCC1C3CC(OCCOC4CCCCO4)C(O)(C(=O)CO)C3(C)CC(O)C12F` (stereo unspecified): 196 to 200 °C.

As to `N#CC1(N2CCN(c3ccc(N4CC(CCC(N)=O)OC4=O)cc3F)CC2)CCOCC1` (stereo unspecified), the melting point was in the range of 134 to 137 °C.

`Cc1ncnc(-c2cc([N+](=O)[O-])c(F)cc2F)c1Cl` showed a melting point of 95 to 97 °C.

Regarding `CN1CCC(c2c[nH]c3ccc(NC(=O)c4ccc5ccccc5c4)cc23)CC1`, the melting point lay within 153 to 156 °C. The same measure for `CCOC(=O)C(=O)Nc1cccc(-c2nnn[nH]2)c1`: 192 to 193 °C; for `COc1cc(O)c(C(=O)C=Cc2ccc3nc[nH]c3c2)c(OC)c1`: 147 to 149 °C. In turn, `O=Cc1ccc(-c2cc(C(F)(F)F)n(Cc3ccccc3)n2)o1` showed a melting point of 76.5 to 77.5 °C.

Turning to `O=C(O)C1Cc2cc(-c3ccc(Cl)cc3)ccc2O1` (stereo unspecified), the melting point was in the range of 94 to 96 °C.

`CC(C)C(NS(=O)(=O)c1ccc(Cl)s1)c1ncnn1Cc1ccccc1` (stereo unspecified) returned a melting point of 138 to 139 °C. The same measure for `CC1(C)OC[C@H](COc2nc(Oc3ccc(F)cc3F)nc3[nH]nc(-c4ccccc4Cl)c23)O1`: 70.1 to 75.9 °C; for `CCOC(=O)c1nc2cc(N)ccn2n1`: 150 to 171 °C; for `COc1ccc(C(CN(C)C)C2(O)CCCCC2)cc1` (stereo unspecified): 78.3 to 79.5 °C. The same measure for `COCC#CCCCCC12OCC(C(C)(C)C)(CO1)CO2`: 47 to 49 °C. The same measure for `CCCC(=O)Nc1cc(C(=O)Nc2cc(C(=O)Nc3ccc(O)cc3CCBr)n(C)c2)n(C)c1`: 138 to 150 °C. `CCCCN(CCCC)C(=O)CC(C)Nc1c(C#N)cnn1-c1ccc(Cl)c(Cl)c1Cl` (stereo unspecified) returned a melting point of 101 to 103 °C. The same measure for `Cc1cccc(-c2n[nH]cc2-c2ccc(F)c(-c3cn(CCO)cn3)c2)n1`: 248 °C; for `Nc1cc(OCc2ccccc2)ccc1NC(=O)c1ccc(C23CC4CC(CC(C4)C2)C3)c(OCc2ccccc2)c1`: 178 °C; for `CCCc1ccc(OC)c(-c2csc(N)n2)c1`: 84 °C. The same measure for `CCCC(=O)Nc1ccc(C(=O)Nc2ccc3cc(CN4CCCC4)cnc3c2C)cc1`: 192 to 194 °C; for `CS(=O)(=O)N(Cc1cccnc1)c1ccc(F)cc1F`: 132 to 135 °C; for `COCCCn1c(CO)c(Br)c2c3c(c(-c4ccccc4Cl)cc21)C(=O)NC3=O`: 178 to 180 °C. The same measure for `CC(=O)OC1CSC(Oc2cccc(-c3cnn(C)c3)c2)C(OC(C)=O)C1OC(C)=O` (stereo unspecified): 140 °C; for `CC(C)CCCCCCCCCCCC(=O)Nc1ccc(O)c(O)c1`: 85 to 86 °C. The molecule `C=CCc1ccc(C2=NNC(=O)CC2)cc1O` registered a melting point of 175 to 178 °C. The same measure for `CCOC(C)=C(C#N)C(=O)Nc1cccc(Cl)c1`: 166 to 168 °C.
